Source: patent US12102619B2 (Jazz Pharmaceuticals Research UK Limited, priority 2020, dated 2024)
Like-named read-outs stand apart in the source and are kept apart here.

What was measured:
P-gp = P-gp (Homo sapiens, UniProt P08183); assay: P-gp substrate status of the CBD metabolite; assay type: in vitro ADME
Excerpt: (§1) The pharmacological properties of CBD are not fully elucidated. […] 7-COOH-CBD is an inhibitor of transport mediated via BCRP and BSEP at clinically relevant concentrations.

BCRP = target: T1, BCRP (Homo sapiens, UniProt Q9UNQ0); assay: Inhibition of BCRP-mediated transport; assay type: in vitro ADME; settings: at clinically relevant concentrations
T1 sequence (Q9UNQ0 1-655): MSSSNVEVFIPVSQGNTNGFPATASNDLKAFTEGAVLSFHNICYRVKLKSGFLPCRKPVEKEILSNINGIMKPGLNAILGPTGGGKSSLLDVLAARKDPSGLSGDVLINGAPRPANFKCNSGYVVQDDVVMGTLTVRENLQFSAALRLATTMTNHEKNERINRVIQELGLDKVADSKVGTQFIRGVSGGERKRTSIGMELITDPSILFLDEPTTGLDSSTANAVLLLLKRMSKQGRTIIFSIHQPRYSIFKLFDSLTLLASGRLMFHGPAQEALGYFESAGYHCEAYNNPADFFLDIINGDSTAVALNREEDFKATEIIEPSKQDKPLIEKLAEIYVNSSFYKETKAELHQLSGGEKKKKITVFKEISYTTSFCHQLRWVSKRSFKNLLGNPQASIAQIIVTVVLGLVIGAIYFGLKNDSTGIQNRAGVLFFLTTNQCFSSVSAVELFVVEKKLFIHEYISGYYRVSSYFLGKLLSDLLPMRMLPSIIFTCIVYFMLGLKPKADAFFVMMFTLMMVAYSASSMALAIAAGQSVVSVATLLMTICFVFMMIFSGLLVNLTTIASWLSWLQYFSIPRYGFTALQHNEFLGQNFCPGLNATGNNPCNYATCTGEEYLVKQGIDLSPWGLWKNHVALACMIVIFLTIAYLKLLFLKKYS
Excerpt: as §1

BSEP = BSEP (Homo sapiens, UniProt O95342); assay: Inhibition of BSEP-mediated transport; assay type: in vitro ADME; settings: at clinically relevant concentrations
Excerpt: as §1

[1] = coadministered P-gp and CYP3A4 inhibitor; cited from earlier work
[2] = Clinical DDI study of steady-state CBD with orally dosed midazolam (GWEP17028); assay type: in vivo; settings: CBD at steady-state (750 mg bid, fed state), dosed concomitantly
Excerpt: The everolimus label contains no instructions to adjust the dose when administered with a P-gp inhibitor that is not also a moderate or strong CYP3A4 inhibitor.

[3] = Steady state AUC of CBD by daily dose; settings: human, in vivo
Excerpt: In some embodiments, the AUCt1-t2 is reported as a geometric mean (% coefficient of variation).

[4] = Adverse effects of elevated CBD levels; assay type: in vivo
Excerpt: Transaminase can lead to hepatic dysfunction, including unexplained nausea, vomiting, right upper quadrant abdominal pain, fatigue, anorexia, or jaundice and/or dark urine. Elevated exposure of everolimus exposure is known to cause non-infectious pneumonitis, infections, severe hypersensitivity to reactions, angioedema, stomatitis, renal failure, impaired wound healing, metabolic disorders, myelosuppression, risk of infection or reduced immune response with vaccination, embryo-fetal toxicity, and stomatis, respiratory tract infection. The methods of the disclosure reduce the incidence of one or more of the above side effects.

clinical = settings: human, in vivo, 5 mg
Excerpt: The duration of the trial was approximately 9 weeks, which includes a screening period (up to 4 weeks), a treatment period (18 days) and a safety follow-up period (2 weeks). After signing the informed consent form (ICF), participants enter the screening period (Day −28 to −1). On Day −1, screened participants who continued to meet eligibility criteria were admitted to the clinical research unit (CRU) at approximately […] and enrolled into the trial. On Day 1, participants received everolimus, 30 minutes after starting a standard meal. […] On Day 18, participants were discharged from the CRU once all assessments were completed.
The time of the meal consumed at the site during days of IMP administration was recorded, as was the dose and dosing time of IMP (as appropriate) relative to sampling times.
Log transformed Cmax, AUC(0-∞), and AUC(0-t) parameters for everolimus were analyzed using a linear mixed-effects model with a fixed effect for treatment and a random effect for participant. The treatment differences are back transformed to present the ratios of geometric means and the corresponding 90% confidence intervals (CIs).

CYP3A4 = CYP3A4 (Homo sapiens, UniProt P08684); settings: oral dose of midazolam coadministered; cited from earlier work
[5] = cited from earlier work
[6] = once-daily dosing; cited from earlier work

CYP3A4, sequence (P08684 whole entry): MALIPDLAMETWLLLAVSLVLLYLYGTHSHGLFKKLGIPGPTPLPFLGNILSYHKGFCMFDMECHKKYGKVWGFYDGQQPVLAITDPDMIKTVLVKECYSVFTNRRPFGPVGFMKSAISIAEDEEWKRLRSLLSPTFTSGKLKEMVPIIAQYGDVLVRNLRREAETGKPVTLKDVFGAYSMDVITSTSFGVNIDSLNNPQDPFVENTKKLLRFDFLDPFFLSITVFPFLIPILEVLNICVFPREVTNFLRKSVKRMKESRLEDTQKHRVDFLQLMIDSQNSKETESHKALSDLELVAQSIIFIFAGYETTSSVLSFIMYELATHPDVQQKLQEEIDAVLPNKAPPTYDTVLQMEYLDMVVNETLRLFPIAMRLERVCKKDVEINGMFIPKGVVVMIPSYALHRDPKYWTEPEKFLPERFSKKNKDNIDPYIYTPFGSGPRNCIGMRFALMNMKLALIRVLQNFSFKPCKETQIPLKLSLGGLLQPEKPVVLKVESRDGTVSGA
P-gp, sequence (P08183 whole entry): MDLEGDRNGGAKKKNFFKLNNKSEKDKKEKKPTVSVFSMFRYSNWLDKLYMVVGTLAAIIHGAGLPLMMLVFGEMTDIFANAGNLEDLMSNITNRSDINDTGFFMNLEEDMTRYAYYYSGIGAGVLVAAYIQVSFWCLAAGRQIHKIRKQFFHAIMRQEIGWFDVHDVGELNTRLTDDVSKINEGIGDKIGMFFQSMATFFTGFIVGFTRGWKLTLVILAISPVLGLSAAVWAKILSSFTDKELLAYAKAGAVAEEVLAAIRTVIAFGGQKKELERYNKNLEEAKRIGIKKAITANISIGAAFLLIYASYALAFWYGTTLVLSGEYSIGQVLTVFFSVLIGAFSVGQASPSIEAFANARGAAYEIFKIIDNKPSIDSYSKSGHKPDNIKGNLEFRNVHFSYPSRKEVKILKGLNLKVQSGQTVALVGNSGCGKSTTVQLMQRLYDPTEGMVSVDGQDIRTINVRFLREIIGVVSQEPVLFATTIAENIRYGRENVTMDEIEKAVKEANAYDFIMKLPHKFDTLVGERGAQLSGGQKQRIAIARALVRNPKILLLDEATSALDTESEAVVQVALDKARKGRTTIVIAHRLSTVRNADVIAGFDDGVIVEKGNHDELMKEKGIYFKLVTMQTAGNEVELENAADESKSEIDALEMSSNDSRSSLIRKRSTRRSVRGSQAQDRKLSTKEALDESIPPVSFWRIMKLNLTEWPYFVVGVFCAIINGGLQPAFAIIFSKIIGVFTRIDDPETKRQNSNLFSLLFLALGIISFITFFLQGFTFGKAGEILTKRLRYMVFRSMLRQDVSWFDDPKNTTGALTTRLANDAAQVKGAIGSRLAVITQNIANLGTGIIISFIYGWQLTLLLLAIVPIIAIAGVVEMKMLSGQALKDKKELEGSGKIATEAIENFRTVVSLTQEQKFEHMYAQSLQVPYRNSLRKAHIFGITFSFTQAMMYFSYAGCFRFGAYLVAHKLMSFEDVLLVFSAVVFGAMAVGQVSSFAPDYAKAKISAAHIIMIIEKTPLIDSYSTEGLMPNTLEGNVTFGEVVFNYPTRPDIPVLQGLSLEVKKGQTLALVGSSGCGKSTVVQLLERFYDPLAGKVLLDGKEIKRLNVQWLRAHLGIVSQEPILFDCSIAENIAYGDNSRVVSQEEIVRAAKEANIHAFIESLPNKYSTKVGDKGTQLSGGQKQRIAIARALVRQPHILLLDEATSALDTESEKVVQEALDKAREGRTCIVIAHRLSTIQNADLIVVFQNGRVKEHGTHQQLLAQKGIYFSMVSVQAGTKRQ
BSEP, sequence (O95342 whole entry): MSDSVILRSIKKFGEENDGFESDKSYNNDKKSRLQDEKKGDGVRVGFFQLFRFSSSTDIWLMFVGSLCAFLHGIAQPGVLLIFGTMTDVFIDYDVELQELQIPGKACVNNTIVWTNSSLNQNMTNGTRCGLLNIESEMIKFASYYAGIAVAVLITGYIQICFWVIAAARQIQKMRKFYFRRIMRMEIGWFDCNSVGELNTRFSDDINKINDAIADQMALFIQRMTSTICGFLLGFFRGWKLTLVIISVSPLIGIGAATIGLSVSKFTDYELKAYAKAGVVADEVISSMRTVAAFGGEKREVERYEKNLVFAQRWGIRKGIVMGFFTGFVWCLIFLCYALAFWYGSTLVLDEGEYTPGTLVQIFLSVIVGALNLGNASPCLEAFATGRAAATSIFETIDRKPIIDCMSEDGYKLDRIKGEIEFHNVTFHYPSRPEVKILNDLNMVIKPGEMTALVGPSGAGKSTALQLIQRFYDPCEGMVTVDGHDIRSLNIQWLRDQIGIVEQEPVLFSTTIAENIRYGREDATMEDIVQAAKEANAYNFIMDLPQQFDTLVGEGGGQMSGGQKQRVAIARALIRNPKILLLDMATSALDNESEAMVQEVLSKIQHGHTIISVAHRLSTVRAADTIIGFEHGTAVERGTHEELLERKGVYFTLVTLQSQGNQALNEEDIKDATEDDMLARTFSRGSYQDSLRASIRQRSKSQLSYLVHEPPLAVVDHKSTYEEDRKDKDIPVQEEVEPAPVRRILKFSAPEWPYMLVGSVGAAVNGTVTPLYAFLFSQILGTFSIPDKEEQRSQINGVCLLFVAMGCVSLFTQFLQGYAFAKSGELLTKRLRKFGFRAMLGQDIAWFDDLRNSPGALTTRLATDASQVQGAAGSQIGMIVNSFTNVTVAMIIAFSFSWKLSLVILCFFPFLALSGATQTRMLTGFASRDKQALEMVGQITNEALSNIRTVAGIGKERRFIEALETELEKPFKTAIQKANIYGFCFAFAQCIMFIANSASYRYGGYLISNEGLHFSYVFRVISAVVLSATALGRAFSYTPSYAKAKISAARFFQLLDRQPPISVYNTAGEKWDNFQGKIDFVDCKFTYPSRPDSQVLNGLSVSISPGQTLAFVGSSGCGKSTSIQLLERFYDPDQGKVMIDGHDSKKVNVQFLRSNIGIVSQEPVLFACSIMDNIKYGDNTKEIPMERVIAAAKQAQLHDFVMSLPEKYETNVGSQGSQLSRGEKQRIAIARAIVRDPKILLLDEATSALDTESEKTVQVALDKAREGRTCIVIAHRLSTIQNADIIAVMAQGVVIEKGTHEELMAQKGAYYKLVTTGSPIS

## C=C(C)[C@@H]1CCC(C(=O)O)=C[C@H]1c1c(O)cc(CCCCC)cc1O [7-COOH-CBD, 7-carboxy-cannabidiol]
P-gp
  P-gp substrate status: substrate for P-gp
BCRP
  Inhibition of transport mediated via BCRP: inhibitor
BSEP
  Inhibition of transport mediated via BSEP: inhibitor

## CC[C@H]1OC(=O)[C@H](C)[C@@H](O[C@H]2C[C@@](C)(OC)[C@@H](O)[C@H](C)O2)[C@H](C)[C@@H](O[C@@H]2O[C@H](C)C[C@H](N(C)C)[C@H]2O)[C@](C)(O)C[C@@H](C)C(=O)[C@H](C)[C@@H](O)[C@]1(C)O [Erythromycin]
[1]
  Increase of the AUC of everolimus: 4.4 fold
  Increase of the Cmax of everolimus: 2.0 fold

## C=C(C)[C@@H]1CCC(C)=C[C@H]1c1c(O)cc(CCCCC)cc1O [CBD, Cannabidiol]
[2]
  Effect on orally dosed midazolam PK parameters: no clinically significant effect
[3]; 5 mg/kg/day
  AUC(0-t): 241 ng·h/mL
[3]; 10 mg/kg/day
  AUC(0-t): 722 ng·h/mL
[3]; 20 mg/kg/day
  AUC(0-t): 963 ng·h/mL
[3]; 25 mg/kg/day
  AUC: 2520 ng·h/mL
[3]; 50 mg/kg/day
  AUC: 2730 ng·h/mL
[4]
  Adverse effects caused by elevated levels: transaminase elevation, rash, somnolence, sedation, lethargy, diarrhea, pyrexia, weight decreased, nasopharyngitis, irritability, oropharyngeal pain, and decreased appetite

## CC(=O)N1CCN(c2ccc(OCC3COC(Cn4ccnc4)(c4ccc(Cl)cc4Cl)O3)cc2)CC1 (stereo not drawn) [ketoconazole]
[1]
  Increase of the AUC of everolimus: 15 fold
  Increase of the Cmax of everolimus: 3.9 fold

## CO[C@H]1C[C@@H]2CC[C@@H](C)[C@@](O)(O2)C(=O)C(=O)N2CCCC[C@H]2C(=O)O[C@H]([C@H](C)C[C@@H]2CC[C@@H](OCCO)[C@H](OC)C2)CC(=O)[C@H](C)/C=C(\C)[C@@H](O)[C@@H](OC)C(=O)[C@H](C)C[C@H](C)/C=C/C=C/C=C/1C [Everolimus]
clinical
  AUC(0-inf): 216 ng·h/mL
  AUC(0-t): 95 ng·h/mL
  Cmax: 18 ng/mL
CYP3A4
  Increase in midazolam AUC0-inf: 30%
  Increase in midazolam Cmax: 25%
[5]; 2.5 mg of everolimus
  Everolimus AUC24, geometric mean±SD: 570 ± 195 ng·h/mL
  Everolimus Cmaxss, geometric mean±SD: 62.1 ± 13.1 ng/mL
  Everolimus Cminss, geometric mean±SD: 13.6 ± 9.0 ng/mL
[5]; 5 mg of everolimus
  Everolimus AUC24, geometric mean±SD: 716 ± 123 ng·h/mL
  Everolimus Cmaxss, geometric mean±SD: 114 ± 36 ng/mL
  Everolimus Cminss, geometric mean±SD: 17.4 ± 4.5 ng/mL
  Everolimus tmax, median (range): 48 min
[5]; 10 mg of everolimus
  Everolimus AUC24: 1470 ng·h/mL
  Everolimus Cmaxss: 139 ng/mL
  Everolimus Cminss: 16.5 ng/mL
[6]
  Time to steady-state: ≤ 2 weeks
